Laboratory results published in US12157730B2, “Heteroaryl derivative, method for producing same, and pharmaceutical composition comprising same as effective component” (VORONOI INC., priority 2019, dated 2024).

Molecular target: T1, Ba/F3 cell EGFR Exon20 ins NPH (Homo sapiens, UniProt P00533, INS773NPH)
T1 construct: expressed in transfected cells; host or cells: Ba/F3
Test: Ba/F3 cell proliferation suppression, EGFR Exon20 ins NPH
Type: cell-based
Conditions: GI50 class; Ba/F3 cell line with NPH inserted at Exon20 of EGFR; 72 hours
In short: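 After 72 h compound exposure (twelve 3-fold steps, 0.3 nM–50 um final), live cells were measured by CellTiter-Glo luminescence and growth expressed as % of control to derive GI50. Cells were seeded at 3000–5000 per well a day earlier; Ba/F3 medium contained IL-3; three repeats.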

For `C=CC(=O)Nc1cc(Nc2cc(N3OCC[C@@H]3c3cccc(OC)c3)ncn2)c(OC)cc1N1CCC(N2CCOCC2)CC1` [compound 775, N-(4-methoxy-5-((6-((R)-3-(3-methoxyphenyl)isoxazolidine-2-yl)pyrimidine-4-yl)amino)-2-(4-morpholinopiperidine-1-yl)phenyl)acrylamide], the “Ba/F3 (NPH) Activity” value was “A (GI50 < 50 nM)”.

For `C=CC(=O)Nc1cc(Nc2cc(N3OCC[C@@H]3c3ccc(Cl)cc3F)ncn2)c(OC)cc1N1CCC(N2CCN(C)CC2)CC1` [compound 454, N-(5-((6-((R)-3-(4-chloro-2-fluorophenyl)isoxazolidine-2-yl)pyrimidine-4-yl)amino)-4-methoxy-2-(4-(4-methylpiperazine-1-yl)piperidine-1-yl)phenyl) acrylamide], the “Ba/F3 (NPH) Activity” value was “A (GI50 < 50 nM)”.

With `C=CC(=O)Nc1cc(Nc2cc(N3OCC[C@@H]3c3ccc(F)cc3F)ncn2)c(OC)cc1-n1cncc1C` [compound 377, N-(5-((6-((R)-3-(2,4-difluorophenyl)isoxazolidine-2-yl)pyrimidine-4-yl)amino)-4-methoxy-2-(5-methyl-1H-imidazole-1-yl)phenyl)acrylamide] the “Ba/F3 (NPH) Activity” value was “B (50 nM ≤ GI50 < 500 nM)”.

For `C=CC(=O)Nc1cc(Nc2cc(N3OCC[C@@H]3c3cc(F)ccc3F)ncn2)c(OC)cc1N1C[C@@H](C)N(CC)[C@@H](C)C1` [compound 878, N-(5-((6-((R)-3-(2,5-difluorophenyl)isoxazolidine-2-yl)pyrimidine-4-yl)amino)-2-((3S,5R)-4-ethyl-3,5-dimethylpiperazine-1-yl)-4-methoxyphenyl) acrylamide], the “Ba/F3 (NPH) Activity” value was “A (GI50 < 50 nM)”.

With `C=CC(=O)Nc1cc(Nc2cc(N3OCC[C@@H]3c3cccc(Cl)c3F)ncn2)c(OC)cc1N1CCN(C)CC1` [compound 789, N-(5-((6-((R)-3-(3-chloro-2-fluorophenyl)isoxazolidine-2-yl)pyrimidine-4-yl)amino)-4-methoxy-2-(4-methylpiperazine-1-yl)phenyl)acrylamide] the “Ba/F3 (NPH) Activity” value was “A (GI50 < 50 nM)”.

In the case of `C=CC(=O)Nc1cc(Nc2cc(N3OCC[C@@H]3c3cccs3)ncn2)c(OC)cc1N1CCN(C)CC1` [compound 929, N-(4-methoxy-2-(4-methylpiperazine-1-yl)-5-((6-((R)-3-(thiophene-2-yl)isoxazolidine-2-yl)pyrimidine-4-yl)amino)phenyl)acrylamide], the “Ba/F3 (NPH) Activity” value is reported as “A (GI50 < 50 nM)”.

With `C=CC(=O)Nc1cc(Nc2cc(N3OCC[C@@H]3c3ccccc3)ncn2)c(OC)cc1N1CCC(N2CC3CC2CN3C)CC1` (stereo partly drawn) [Example 52, N-(4-methoxy-2-(4-(5-methyl-2,5-diazabicyclo [2.2.1]heptane-2-yl)piperidine-1-yl)-5-((6-((R)-3-phenylisoxazolidine-2-yl)pyrimidine-1-yl)amino)phenyl) acrylamide] the “Ba/F3 (NPH) Activity” value was “A (GI50 < 50 nM)”.

With `C=CC(=O)Nc1cc(Nc2cc(N3OCC[C@@H]3c3ccc(Cl)c(F)c3)ncn2)c(OC)cc1N1CCC(N2CC[C@@H](N(C)C)C2)CC1` [compound 800, N-(5-((6-((R)-3-(4-chloro-3-fluorophenyl)isoxazolidine-2-yl)pyrimidine-4-yl)amino)-2-(4-((R)-3-(dimethylamino)pyrolidine-1-yl)piperidine-1-yl)-4-methoxyphenyl) acrylamide] the “Ba/F3 (NPH) Activity” value was “A (GI50 < 50 nM)”.

With `C=CC(=O)Nc1cc(Nc2cc(N3OCC[C@@H]3c3ccccc3)ncn2)c(OC)cc1N1CCC(N2C[C@H]3C[C@@H]2CO3)CC1` [Example 53, N-(2-(4-((1R,4R)-2-oxa-5-azabicyclo[2.2.1]heptane-5-yl)piperidine-1-yl)-4-methoxy-5-((6-((R)-3-phenylisoxazolidine-2-yl)pyrimidine-4-yl)amino)phenyl) acrylamide] the “Ba/F3 (NPH) Activity” value was “A (GI50 < 50 nM)”.

In the case of `C=CC(=O)Nc1cc(Nc2cc(N3OCC[C@@H]3c3ccc(F)cc3)ncn2)c(OC)cc1N1CCC(N2C[C@H]3CCN(C)[C@H]3C2)CC1` [compound 541, N-(5-((6-((R)-3-(4-fluorophenyl)isoxazolidine-2-yl)pyrimidine-4-yl)amino)-4-methoxy-2-(4-((3aR,6aR)-1-methylhexahydropyrrolo [3,4-b]pyrrole-5(1H)-yl)piperidine-1-yl)phenyl)acrylamide], the “Ba/F3 (NPH) Activity” value is reported as “A (GI50 < 50 nM)”.

`C=CC(=O)Nc1cc(Nc2cc(N3OCC[C@@H]3c3cc(F)cc(F)c3)ncn2)c(OC)cc1N1CCC(N2CCN(C3CC3)C(C)(C)C2)CC1` [Example 106, N-(2-(4-(4-cyclopropyl-3,3-dimethylpiperazine-1-yl)piperidine-1-yl)-5-((6-((R)-3-(3,5-difluorophenyl)isoxazolidine-2-yl)pyrimidine-4-yl)amino)-4-methoxyphenyl) acrylamide] was tested, and the “Ba/F3 (NPH) Activity” value was “A (GI50 < 50 nM)”.

`C=CC(=O)Nc1cc(Nc2cc(N3OCC[C@@H]3c3cc(F)cc(Cl)c3)ncn2)c(OC)cc1N1CCC(N2C[C@H]3CCN(C)[C@H]3C2)CC1` [compound 539, N-(5-((6-((R)-3-(3-chloro-5-fluorophenyl)isoxazolidine-2-yl)pyrimidine-4-yl)amino)-4-methoxy-2-(4-((3aR,6aR)-1-methylhexahydropyrrolo [3,4-b]pyrrole-5(1H)-yl)piperidine-1-yl)phenyl)acrylamide] was tested, and the “Ba/F3 (NPH) Activity” value was “A (GI50 < 50 nM)”.

For `C=CC(=O)Nc1cc(Nc2cc(N3OCC[C@@H]3c3cccc4ccccc34)ncn2)c(OC)cc1N1CCC(N2CCN(C(C)C)CC2)CC1` [compound 490, N-(2-(4-(4-isopropylpiperazine-1-yl)piperidine-1-yl)-4-methoxy-5-((6-((R)-3-(naphthalene-1-yl)isoxazolidine-2-yl)pyrimidine-4-yl)amino)phenyl)acrylamide], the “Ba/F3 (NPH) Activity” value was “A (GI50 < 50 nM)”.

In the case of `C=CC(=O)Nc1cc(Nc2cc(N3OCC[C@H]3Cc3ccccc3)ncn2)c(OC)cc1N1CCN(C2CCN(C)CC2)CC1` [compound 974, N-(5-((6-((R)-3-benzylisoxazolidine-2-yl)pyrimidine-4-yl)amino)-4-methoxy-2-(4-(1-methylpiperidine-4-yl)piperazine-1-yl)phenyl)acrylamide], the “Ba/F3 (NPH) Activity” value is reported as “C (500 nM ≤ GI50 < 5000 nM)”.

With `C=CC(=O)Nc1cc(Nc2cc(N3OCC[C@@H]3c3ccc4ccccc4c3)ncn2)c(OC)cc1N1CCC(N2C[C@H]3C[C@@H]2CO3)CC1` [compound 557, N-(2-(4-((1R,4R)-2-oxa-5-azabicyclo[2.2.1]heptane-5-yl)piperidine-1-yl)-4-methoxy-5-((6-((R)-3-(naphthalene-2-yl)isoxazolidine-2-yl)pyrimidine-4-yl)amino)phenyl)acrylamide] the “Ba/F3 (NPH) Activity” value was “B (50 nM ≤ GI50 < 500 nM)”.

For `C=CC(=O)Nc1cc(Nc2cc(N3OCC[C@@H]3c3ccc(Cl)c(Cl)c3F)ncn2)c(OC)cc1N1CCC(N2C[C@H]3C[C@@H]2CO3)CC1` [Example 268, N-(2-(4-((1R,4R)-2-oxa-5-azabicyclo[2.2.1]heptane-5-yl)piperidine-1-yl)-5-((6-((R)-3-(3,4-dichloro-2-fluorophenyl)isoxazolidine-2-yl)pyrimidine-4-yl)amino)-4-methoxyphenyl) acrylamide], the “Ba/F3 (NPH) Activity” value was “A (GI50 < 50 nM)”.

In the case of `C=CC(=O)Nc1cc(Nc2cc(N3OCC[C@@H]3c3ccc(Cl)c(F)c3)ncn2)c(OC)cc1N1CCN(CC)CC1` [compound 798, N-(5-((6-((R)-3-(4-chloro-3-fluorophenyl)isoxazolidine-2-yl)pyrimidine-4-yl)amino)-2-(4-ethylpiperazine-1-yl)-4-methoxyphenyl) acrylamide], the “Ba/F3 (NPH) Activity” value is reported as “A (GI50 < 50 nM)”.

`C=CC(=O)Nc1cc(Nc2cc(N3OCC[C@@H]3Cc3cccc(N(C)C)c3)ncn2)c(OC)cc1N1CCC(N2C[C@@H]3C[C@H]2CO3)CC1` [compound 1048, N-(2-(4-((1S,4S)-2-oxa-5-azabicyclo [2.2.1]heptane-5-yl)piperidine-1-yl)-5-((6-((S)-3-(3-(dimethylamino)benzyl)isoxazolidine-2-yl)pyrimidine-4-yl)amino)-4-methoxyphenyl) acrylamide] was tested, and the “Ba/F3 (NPH) Activity” value was “B (50 nM ≤ GI50 < 500 nM)”.

In the case of `C=CC(=O)Nc1cc(Nc2cc(N3OCC[C@@H]3Cc3cccc(Cl)c3OC)ncn2)c(OC)cc1N1CCN(C2CC2)CC1` [compound 1053, N-(5-((6-((S)-3-(3-chloro-2-methoxybenzyl)isoxazolidine-2-yl)pyrimidine-4-yl)amino)-2-(4-cyclopropylpiperazine-1-yl)-4-methoxyphenyl) acrylamide], the “Ba/F3 (NPH) Activity” value is reported as “A (GI50 < 50 nM)”.

`C=CC(=O)Nc1cc(Nc2cc(N3OCC[C@H]3c3c(F)ccc(F)c3Cl)ncn2)c(OC)cc1N1CCC(N2CCN(C3CC3)CC2)CC1` [compound 936, N-(5-((6-((S)-3-(2-chloro-3,6-difluorophenyl)isoxazolidine-2-yl)pyrimidine-4-yl)amino)-2-(4-(4-cyclopropylpiperazine-1-yl)piperidine-1-yl)-4-methoxyphenyl) acrylamide] was tested, and the “Ba/F3 (NPH) Activity” value was “B (50 nM ≤ GI50 < 500 nM)”.

`C=CC(=O)Nc1cc(Nc2cc(N3OCC[C@@H]3Cc3ccccc3)ncn2)c(OC)cc1N1CCC(N(C)C)CC1` [compound 951, N-(5-((6-((S)-3-benzylisoxazolidine-2-yl)pyrimidine-4-yl)amino)-2-(4-(dimethylamino)piperidine-1-yl)-4-methoxyphenyl) acrylamide] was tested, and the “Ba/F3 (NPH) Activity” value was “A (GI50 < 50 nM)”.

With `C=CCN1CCN(C2CCN(c3cc(OC)c(Nc4cc(N5OCC[C@@H]5c5cc(F)cc(F)c5)ncn4)cc3NC(=O)C=C)CC2)CC1` [Example 87, N-(2-(4-(4-allylpiperazine-1-yl)piperidine-1-yl)-5-((6-((R)-3-(3,5-difluorophenyl)isoxazolidine-2-yl)pyrimidine-4-yl)amino)-4-methoxyphenyl) acrylamide] the “Ba/F3 (NPH) Activity” value was “A (GI50 < 50 nM)”.

For `C=CC(=O)Nc1cc(Nc2cc(N3OCC[C@@H]3c3cccc(F)c3Cl)ncn2)c(OC)cc1N(C)CCN(C)C` [compound 551, N-(5-((6-((R)-3-(2-chloro-3-fluorophenyl)isoxazolidine-2-yl)pyrimidine-4-yl)amino)-2-((2-(dimethylamino)ethyl)(methyl)amino)-4-methoxyphenyl) acrylamide], the “Ba/F3 (NPH) Activity” value was “A (GI50 < 50 nM)”.
